Tested on: KRAS PDC multicell spheroid viability
Test: Anticancer human tumor 825966-067-R-J1-PDC patient-derived colon carcinoma cell line growth inhibition [KRAS2]
Details: for IC50: curve of first compound; for viability, T/C: stronger effect = lower value
Description: Multicellular complex tumor spheroid response to RAS pathway inhibitors in combination with a targeted agents in patient-derived cell lines with oncogenic KRAS variants from multiple cancer types
A high-throughput screen of multi-cell type tumor spheroids was designed to identify active combinations of targeted small molecules and KRAS pathway inhibitors. Complex spheroids include a stromal component modeled by human endothelial cells (HUVEC) and fibroblasts modeled by human mesenchymal stem cells (MSCs). The concentration ranges selected for each drug and investigational agent were based upon clinically achievable concentrations if the clinical Cmax of the agent was known.
Compounds. The drugs and investigational agents: BI-3406 (NSC825286), BAY-293 (NSC824723), batoprotafib (TNO155; NSC825523), sotorasib (AMG 510; NSC818433), MRTX1257 (NSC819558), elimusertib (BAY 1895344; NSC800525), molibresib (GSK525762; NSC774829), temuterkib (LY3214996; NSC803410), venetoclax (NSC766270), alisertib (NSC759677), olaparib (NSC753686), talazoparib (NSC767125), erdafitinib (NSC781556), ipatasertib (NSC767898), cabozantinib (NSC761068), nintedanib (NSC756659), abemaciclib (NSC768073), docetaxel (NSC628503), trametinib (NSC758246), and sapanisertib (NSC764658) were obtained from the National Cancer Institute (NCI) Developmental Therapeutics Program Chemical Repository. The FDA-approved anticancer drug set is available from the Developmental Therapeutics Program. […] The stock solutions were prepared in dimethyl sulfoxide (DMSO, Sigma-Aldrich, St. Louis, MO, cat. D2650) at 800-fold the tested concentration and stored at -70 degrees C prior to their use. All drugs and investigational agents were tested over a range starting from a high concentration at or near the clinical Cmax and decreasing in half-log increments. If the clinical Cmax for an agent had not been determined, the highest concentration tested was 10 microM.
Cell Culture. All cells were maintained in an incubator at 37 degrees C and 5% CO2 with 95% humidity. The PDC lines were cultured according to standard operating procedures established by the NCI PDMR (https://pdmr.cancer.gov/sops/default.htm). Briefly, all PDCs were thawed and cultured in Matrigel-coated flasks prepared with a working solution of 1X Ham's F-12 nutrient mix, without supplementation (Invitrogen, Waltham, MA, cat. 11765054), 100 U/mL penicillin-streptomycin (Invitrogen, cat. 15140122), and 2.5% Matrigel (Corning Inc., Corning, NY, cat. 354248) for the first three passages. All PDCs were cultured in complete DMEM/F-12 media containing advanced DMEM/F-12 (Invitrogen, cat. 12634028), 4.9% defined fetal bovine serum, heat inactivated (HyClone Laboratories Inc., Logan, UT, cat. SH30070.03HI), 389 ng/mL hydrocortisone (Sigma-Aldrich, cat. H4001), 9.7 ng/mL human EGF recombinant protein (Invitrogen, cat. PHG0313), 23.4 microg/mL adenine (Sigma-Aldrich, cat. A2786), 97.3 U/mL penicillin-streptomycin (Invitrogen, cat. 15140122), 1.9 mM L-glutamine (Invitrogen, cat. 25030081), and 9.7 microM Y-27632 dihydrochloride (Tocris Bioscience, Bristol, United Kingdom, cat. 1254). The PDCs were cultured in complete DMEM/F12 media without 9.7 microM Y-27632 dihydrochloride for at least two passages prior to the screen. The established cell line HOP-62 was cultured in RPMI 1640 medium, HEPES (Invitrogen, cat. 22400105) with 10% defined fetal bovine serum (HyClone Laboratories Inc., cat. SH30070.03) and 2 mM L-glutamine (Invitrogen, cat. 25030081). The pooled donor HUVEC were cultured in endothelial cell growth medium 2 (PromoCell, Heidelberg, Germany, cat. C-22011) and the hMSC were cultured in mesenchymal stem cell growth medium 2 (PromoCell, cat. C-28009). For all experiments, HUVEC and hMSC were used at passages </=5, while the malignant cell lines were used at passages </=15. […]

[1] = second compound 0.1 µM, first compound 0.0316 µM
[2] = second compound 0.1 µM, first compound 0.1 µM
[3] = second compound 0.316 µM, first compound 0.0316 µM
[4] = second compound 0.316 µM, first compound 0.1 µM
[5] = second compound 1 µM, first compound 0.0316 µM
[6] = second compound 1 µM, first compound 0.1 µM
[7] = second compound 3.16 µM, first compound 0.0316 µM
[8] = second compound 3.16 µM, first compound 0.1 µM
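Note: spheroids exposed to compounds for 7 days.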
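Throughout, for viability, T/C: 100% = DMSO vehicle control viability.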

**Q.** `Cn1ncnc1[C@H]1c2n[nH]c(=O)c3cc(F)cc(c23)N[C@@H]1c1ccc(F)cc1` + CNCc1ccccc1-c1csc(C(C)Nc2nc(C)nc3cc(OC)c(OC)cc23)c1 was tested. Which IC50 (second compound 0.1 µM) did it give?
**A.** > 100 nM

**Q.** And the IC50 (second compound 0.316 µM)?
**A.** > 100 nM

**Q.** And the IC50 (second compound 1 µM)?
**A.** > 100 nM

**Q.** What about the IC50 (second compound 3.16 µM) of the same compound?
**A.** 22.4 nM

**Q.** And the IC50 (second compound 10 µM)?
**A.** < 0.316 nM

**Q.** What about the viability, T/C (second compound 0.1 µM, first compound 0.000316 µM) of the same compound?
**A.** 77%

**Q.** What about the viability, T/C (second compound 0.1 µM, first compound 0.001 µM) of the same compound?
**A.** 84.2%

**Q.** What about the viability, T/C (second compound 0.1 µM, first compound 0.00316 µM) of the same compound?
**A.** 76.4%

**Q.** And the viability, T/C (second compound 0.1 µM, first compound 0.01 µM)?
**A.** 64.5%

**Q.** And the viability, T/C [1]?
**A.** 58.2%

**Q.** What about the viability, T/C [2] of the same compound?
**A.** 58.3%

**Q.** What about the viability, T/C (second compound 0.316 µM, first compound 0.000316 µM) of the same compound?
**A.** 99.9%

**Q.** And the viability, T/C (second compound 0.316 µM, first compound 0.001 µM)?
**A.** 75.2%

**Q.** And the viability, T/C (second compound 0.316 µM, first compound 0.00316 µM)?
**A.** 62.5%

**Q.** What about the viability, T/C (second compound 0.316 µM, first compound 0.01 µM) of the same compound?
**A.** 57.9%

**Q.** What about the viability, T/C [3] of the same compound?
**A.** 57.3%

**Q.** What about the viability, T/C [4] of the same compound?
**A.** 62.2%

**Q.** And the viability, T/C (second compound 1 µM, first compound 0.000316 µM)?
**A.** 85.9%

**Q.** What about the viability, T/C (second compound 1 µM, first compound 0.001 µM) of the same compound?
**A.** 97.9%

**Q.** What about the viability, T/C (second compound 1 µM, first compound 0.00316 µM) of the same compound?
**A.** 72%

**Q.** And the viability, T/C (second compound 1 µM, first compound 0.01 µM)?
**A.** 73.5%

**Q.** What about the viability, T/C [5] of the same compound?
**A.** 70%

**Q.** And the viability, T/C [6]?
**A.** 86%

**Q.** And the viability, T/C (second compound 3.16 µM, first compound 0.000316 µM)?
**A.** 87.3%

**Q.** What about the viability, T/C (second compound 3.16 µM, first compound 0.001 µM) of the same compound?
**A.** 78.7%

**Q.** And the viability, T/C (second compound 3.16 µM, first compound 0.00316 µM)?
**A.** 59.9%

**Q.** What about the viability, T/C (second compound 3.16 µM, first compound 0.01 µM) of the same compound?
**A.** 89.3%

**Q.** And the viability, T/C [7]?
**A.** 37.6%

**Q.** And the viability, T/C [8]?
**A.** 3.27%

**Q.** And the viability, T/C (second compound 10 µM, first compound 0.000316 µM)?
**A.** 0.24%

**Q.** What about the viability, T/C (second compound 10 µM, first compound 0.001 µM) of the same compound?
**A.** 0.26%

**Q.** And the viability, T/C (second compound 10 µM, first compound 0.00316 µM)?
**A.** 0.49%

**Q.** What about the viability, T/C (second compound 10 µM, first compound 0.01 µM) of the same compound?
**A.** 0.28%

**Q.** And the viability, T/C (second compound 10 µM, first compound 0.0316 µM)?
**A.** 0.22%

**Q.** What about the viability, T/C (second compound 10 µM, first compound 0.1 µM) of the same compound?
**A.** 0.19%

**Q.** How did the IC50 (second compound 0.0316 µM) turn out when `O=C(c1cc(Cc2n[nH]c(=O)c3ccccc23)ccc1F)N1CCN(C(=O)C2CC2)CC1` + C=CC(=O)N1CCN(c2nc(OCC3CCCN3C)nc3c2CCN(c2cccc4cccc(C)c24)C3)CC1CC#N was run?
**A.** > 10000 nM

**Q.** What about the IC50 (second compound 0.1 µM) of the same compound?
**A.** > 10000 nM

**Q.** And the IC50 (second compound 0.316 µM)?
**A.** > 10000 nM

**Q.** And the IC50 (second compound 1 µM)?
**A.** > 10000 nM

**Q.** What about the IC50 (second compound 3.16 µM) of the same compound?
**A.** > 10000 nM

**Q.** What about the viability, T/C (second compound 0.0316 µM, first compound 0.0316 µM) of the same compound?
**A.** 100%

**Q.** What about the viability, T/C (second compound 0.0316 µM, first compound 0.1 µM) of the same compound?
**A.** 119%

**Q.** What about the viability, T/C (second compound 0.0316 µM, first compound 0.316 µM) of the same compound?
**A.** 96.8%

**Q.** And the viability, T/C (second compound 0.0316 µM, first compound 1 µM)?
**A.** 77.1%

**Q.** And the viability, T/C (second compound 0.0316 µM, first compound 3.16 µM)?
**A.** 98.4%

**Q.** And the viability, T/C (second compound 0.0316 µM, first compound 10 µM)?
**A.** 80.2%

**Q.** What about the viability, T/C [1] of the same compound?
**A.** 98.7%

**Q.** And the viability, T/C [2]?
**A.** 100%

**Q.** And the viability, T/C (second compound 0.1 µM, first compound 0.316 µM)?
**A.** 91.8%

**Q.** What about the viability, T/C (second compound 0.1 µM, first compound 1 µM) of the same compound?
**A.** 92.3%

**Q.** And the viability, T/C (second compound 0.1 µM, first compound 3.16 µM)?
**A.** 109%

**Q.** What about the viability, T/C (second compound 0.1 µM, first compound 10 µM) of the same compound?
**A.** 95.4%

**Q.** What about the viability, T/C [3] of the same compound?
**A.** 94.7%

**Q.** And the viability, T/C [4]?
**A.** 91.2%

**Q.** What about the viability, T/C (second compound 0.316 µM, first compound 0.316 µM) of the same compound?
**A.** 104%

**Q.** What about the viability, T/C (second compound 0.316 µM, first compound 1 µM) of the same compound?
**A.** 94.1%

**Q.** And the viability, T/C (second compound 0.316 µM, first compound 3.16 µM)?
**A.** 96.2%

**Q.** And the viability, T/C (second compound 0.316 µM, first compound 10 µM)?
**A.** 97.9%

**Q.** And the viability, T/C [5]?
**A.** 87.1%

**Q.** What about the viability, T/C [6] of the same compound?
**A.** 94.8%

**Q.** What about the viability, T/C (second compound 1 µM, first compound 0.316 µM) of the same compound?
**A.** 91%

**Q.** And the viability, T/C (second compound 1 µM, first compound 1 µM)?
**A.** 93.2%

**Q.** What about the viability, T/C (second compound 1 µM, first compound 3.16 µM) of the same compound?
**A.** 99.6%

**Q.** And the viability, T/C (second compound 1 µM, first compound 10 µM)?
**A.** 125%

**Q.** What about the viability, T/C [7] of the same compound?
**A.** 96.3%

**Q.** And the viability, T/C [8]?
**A.** 108%

**Q.** What about the viability, T/C (second compound 3.16 µM, first compound 0.316 µM) of the same compound?
**A.** 111%

**Q.** What about the viability, T/C (second compound 3.16 µM, first compound 1 µM) of the same compound?
**A.** 110%

**Q.** And the viability, T/C (second compound 3.16 µM, first compound 3.16 µM)?
**A.** 123%

**Q.** And the viability, T/C (second compound 3.16 µM, first compound 10 µM)?
**A.** 109%
